Test results as given in ChEMBL document CHEMBL1201862, “PubChem BioAssay data set” (2004).
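In this assay, cells in 96-well plates receive the compound at five concentrations for 48 hours. Endpoints are linearly interpolated between the surrounding concentrations. GI50 marks 50% less growth.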 Active and inactive are the calls of the source. Rule as the data show it: active = GI50 up to about 1.1 µM and inactive = higher.

Legend:
Assay in all cases: growth of human tumour cells (NCI), 48 h
EKVX = system: EKVX
NCI-H460 = system: NCI-H460
HCT-15 = system: HCT-15
HCT-116 = system: HCT-116
SNB-19 = system: SNB-19
ACHN = system: ACHN
RXF 393 = system: RXF 393
MCF7 = system: MCF7
NCI-H226 = system: NCI-H226
Malme-3M = system: Malme-3M
SK-MEL-28 = system: SK-MEL-28
IGROV-1 = system: IGROV-1
A549 = system: A549
DU-145 = system: DU-145
SW-620 = system: SW-620
PC-3 = system: PC-3
OVCAR-5 = system: OVCAR-5
U-251 = system: U-251
A498 = system: A498
UACC-62 = system: UACC-62

O=C(CC1(O)C(=O)Nc2c(Cl)ccc(Cl)c21)c1ccco1 (stereo not given)
GI50 (EKVX): 22.6 µM (inactive)
GI50 (NCI-H460): 20.4 µM (inactive)
GI50 (HCT-15): 25.2 µM
GI50 (HCT-116): 14 µM (inactive)
GI50 (SNB-19): 42.3 µM (inactive)
GI50 (ACHN): 20.5 µM (inactive)
GI50 (RXF 393): 19.4 µM (inactive)
GI50 (MCF7): 14.9 µM (inactive)
GI50 (NCI-H226): 19.7 µM (inactive)
GI50 (Malme-3M): 20 µM (inactive)
GI50 (SK-MEL-28): 19.5 µM (inactive)
GI50 (IGROV-1): 18.3 µM (inactive)
GI50 (A549): 23 µM (inactive)
GI50 (DU-145): 40.3 µM (inactive)
GI50 (SW-620): 20.1 µM (inactive)
GI50 (PC-3): 28.2 µM (inactive)
GI50 (OVCAR-5): 20.9 µM (inactive)
GI50 (U-251): 22.7 µM (inactive)
GI50 (A498): 30.4 µM (inactive)
GI50 (UACC-62): 13.5 µM (inactive)

O=[As](O)(O)c1ccc(/N=N/c2ccc(O)cc2)cc1
GI50 (EKVX): > 100 µM (inactive)
GI50 (NCI-H460): > 100 µM (inactive)
GI50 (HCT-15): > 100 µM
GI50 (HCT-116): > 100 µM (inactive)
GI50 (SNB-19): > 100 µM (inactive)
GI50 (ACHN): > 100 µM (inactive)
GI50 (RXF 393): > 100 µM (inactive)
GI50 (MCF7): > 100 µM (inactive)
GI50 (NCI-H226): > 100 µM (inactive)
GI50 (Malme-3M): > 100 µM (inactive)
GI50 (SK-MEL-28): > 100 µM (inactive)
GI50 (IGROV-1): > 100 µM (inactive)
GI50 (A549): > 100 µM (inactive)
GI50 (DU-145): > 100 µM (inactive)
GI50 (SW-620): > 100 µM (inactive)
GI50 (PC-3): > 100 µM (inactive)
GI50 (OVCAR-5): > 100 µM (inactive)
GI50 (U-251): > 100 µM (inactive)
GI50 (A498): > 100 µM (inactive)
GI50 (UACC-62): > 100 µM (inactive)

CC1=C(O)C(=O)C[C@]2(C)[C@H]3CC=C4[C@@H]5CC(C)(C)CC[C@@H]5C(=O)[C@H](O)[C@@]4(C)[C@]3(C)CC[C@@H]12
GI50 (EKVX): > 50 µM (inactive)
GI50 (NCI-H460): > 50 µM (inactive)
GI50 (HCT-15): > 50 µM
GI50 (HCT-116): > 50 µM (inactive)
GI50 (SNB-19): > 50 µM (inactive)
GI50 (ACHN): 41.4 µM (inactive)
GI50 (RXF 393): 10 µM (inactive)
GI50 (MCF7): > 50 µM (inactive)
GI50 (NCI-H226): > 50 µM (inactive)
GI50 (Malme-3M): > 50 µM (inactive)
GI50 (SK-MEL-28): > 50 µM (inactive)
GI50 (IGROV-1): 21.8 µM (inactive)
GI50 (A549): 24.8 µM (inactive)
GI50 (DU-145): > 50 µM (inactive)
GI50 (SW-620): > 50 µM (inactive)
GI50 (PC-3): 16.7 µM (inactive)
GI50 (OVCAR-5): > 50 µM (inactive)
GI50 (U-251): 27.5 µM (inactive)
GI50 (A498): > 50 µM (inactive)
GI50 (UACC-62): > 50 µM (inactive)

Cc1cc(Cc2c(F)c(F)c(C(c3cc(C)no3)c3c(F)c(F)c(F)c(F)c3F)c(F)c2F)on1 (stereo not given)
GI50 (EKVX): > 100 µM (inactive)
GI50 (NCI-H460): 6.41 µM (inactive)
GI50 (HCT-15): 14.2 µM
GI50 (HCT-116): 18.3 µM (inactive)
GI50 (SNB-19): > 100 µM (inactive)
GI50 (ACHN): > 100 µM (inactive)
GI50 (RXF 393): 2.34 µM (inactive)
GI50 (MCF7): 6.76 µM (inactive)
GI50 (NCI-H226): > 100 µM (inactive)
GI50 (Malme-3M): > 100 µM (inactive)
GI50 (SK-MEL-28): > 38.8 µM (inactive)
GI50 (IGROV-1): > 100 µM (inactive)
GI50 (A549): > 100 µM (inactive)
GI50 (DU-145): > 100 µM (inactive)
GI50 (SW-620): 8.02 µM (inactive)
GI50 (PC-3): 69.5 µM (inactive)
GI50 (OVCAR-5): > 100 µM (inactive)
GI50 (U-251): 18.4 µM (inactive)
GI50 (A498): > 100 µM (inactive)
GI50 (UACC-62): > 27 µM (inactive)

COC1=C(C)C(=O)c2c(c(COC(N)=O)c3n2CC(OC(C)=O)C3OC(C)=O)C1=O (stereo not given)
GI50 (EKVX): 0.202 µM (active)
GI50 (NCI-H460): < 0.01 µM (active)
GI50 (HCT-15): 0.0126 µM
GI50 (HCT-116): 0.0204 µM (active)
GI50 (SNB-19): 0.433 µM (active)
GI50 (ACHN): < 0.01 µM (active)
GI50 (RXF 393): 0.152 µM (active)
GI50 (MCF7): 0.0301 µM (active)
GI50 (NCI-H226): 0.297 µM (active)
GI50 (Malme-3M): 0.0493 µM (active)
GI50 (SK-MEL-28): 0.311 µM (active)
GI50 (IGROV-1): 0.0785 µM (active)
GI50 (A549): 0.136 µM (active)
GI50 (DU-145): 0.0251 µM (active)
GI50 (SW-620): 0.0206 µM (active)
GI50 (PC-3): 0.131 µM (active)
GI50 (OVCAR-5): 0.267 µM (active)
GI50 (U-251): 0.0944 µM (active)
GI50 (A498): 0.593 µM (active)
GI50 (UACC-62): 0.0857 µM (active)

CC(C)/C(Cl)=N\OC(=O)Nc1ccc(S(N)(=O)=O)cc1
GI50 (EKVX): 18.5 µM (inactive)
GI50 (NCI-H460): 20.5 µM (inactive)
GI50 (HCT-15): 16.6 µM
GI50 (HCT-116): 13.5 µM (inactive)
GI50 (SNB-19): > 53.2 µM (inactive)
GI50 (ACHN): 13.9 µM (inactive)
GI50 (RXF 393): 12.6 µM (inactive)
GI50 (MCF7): 12.1 µM (inactive)
GI50 (NCI-H226): 21 µM (inactive)
GI50 (Malme-3M): 4.59 µM (inactive)
GI50 (SK-MEL-28): 16.2 µM (inactive)
GI50 (IGROV-1): 17.5 µM (inactive)
GI50 (A549): 20 µM (inactive)
GI50 (DU-145): 17.9 µM (inactive)
GI50 (SW-620): 1.86 µM (inactive)
GI50 (PC-3): 18.5 µM (inactive)
GI50 (OVCAR-5): 18.3 µM (inactive)
GI50 (U-251): 19.5 µM (inactive)
GI50 (A498): 17 µM (inactive)
GI50 (UACC-62): 17.9 µM (inactive)

CC(C)NC(=O)OCc1c(COC(=O)NC(C)C)c(-c2ccc[n+](COC(=O)C3CCCCC3)c2)n2c1CCC2
GI50 (EKVX): > 100 µM (inactive)
GI50 (NCI-H460): 27.9 µM (inactive)
GI50 (HCT-15): 85.5 µM
GI50 (HCT-116): 56.4 µM (inactive)
GI50 (SNB-19): > 100 µM (inactive)
GI50 (ACHN): 27.3 µM (inactive)
GI50 (RXF 393): 38.9 µM (inactive)
GI50 (MCF7): 36.6 µM (inactive)
GI50 (NCI-H226): > 100 µM (inactive)
GI50 (Malme-3M): 62.5 µM (inactive)
GI50 (SK-MEL-28): > 100 µM (inactive)
GI50 (IGROV-1): > 100 µM (inactive)
GI50 (A549): 82 µM (inactive)
GI50 (DU-145): 28.4 µM (inactive)
GI50 (SW-620): 57.4 µM (inactive)
GI50 (PC-3): 48.6 µM (inactive)
GI50 (OVCAR-5): 78.3 µM (inactive)
GI50 (U-251): 55.6 µM (inactive)
GI50 (A498): 29.2 µM (inactive)
GI50 (UACC-62): 24.8 µM (inactive)

CN1C=Cc2nccc3cc4c(c1c23)OCO4
GI50 (EKVX): 1.85 µM (inactive)
GI50 (NCI-H460): 0.422 µM (active)
GI50 (HCT-15): 7.59 µM
GI50 (HCT-116): 1.5 µM (inactive)
GI50 (SNB-19): 1.87 µM (inactive)
GI50 (ACHN): 1.56 µM (inactive)
GI50 (RXF 393): 0.879 µM (active)
GI50 (MCF7): 3.03 µM (inactive)
GI50 (NCI-H226): 2.83 µM (inactive)
GI50 (Malme-3M): 0.118 µM (active)
GI50 (SK-MEL-28): 4.83 µM (inactive)
GI50 (IGROV-1): > 20.7 µM (inactive)
GI50 (A549): 2.81 µM (inactive)
GI50 (DU-145): 5.78 µM (inactive)
GI50 (SW-620): 3.64 µM (inactive)
GI50 (PC-3): 3.21 µM (inactive)
GI50 (OVCAR-5): 6.61 µM (inactive)
GI50 (U-251): 3.09 µM (inactive)
GI50 (A498): 4 µM (inactive)
GI50 (UACC-62): 1.36 µM (inactive)

CN(CC(=O)O)c1ncc2c(n1)CCCC2
GI50 (EKVX): > 100 µM (inactive)
GI50 (NCI-H460): > 100 µM (inactive)
GI50 (HCT-15): > 100 µM
GI50 (HCT-116): > 100 µM (inactive)
GI50 (SNB-19): > 100 µM (inactive)
GI50 (ACHN): > 100 µM (inactive)
GI50 (RXF 393): > 100 µM (inactive)
GI50 (MCF7): > 100 µM (inactive)
GI50 (NCI-H226): > 100 µM (inactive)
GI50 (Malme-3M): > 100 µM (inactive)
GI50 (SK-MEL-28): > 100 µM (inactive)
GI50 (IGROV-1): > 100 µM (inactive)
GI50 (A549): > 100 µM (inactive)
GI50 (DU-145): > 100 µM (inactive)
GI50 (SW-620): > 100 µM (inactive)
GI50 (PC-3): > 100 µM (inactive)
GI50 (OVCAR-5): > 100 µM (inactive)
GI50 (U-251): > 100 µM (inactive)
GI50 (A498): > 100 µM (inactive)
GI50 (UACC-62): > 100 µM (inactive)

Cc1cn([C@@H]2O[C@H](CO)[C@@H](O)[C@@H]2O)c(=O)[nH]c1=O
GI50 (EKVX): > 1000 µM (inactive)
GI50 (NCI-H460): > 1000 µM (inactive)
GI50 (HCT-15): > 1000 µM
GI50 (HCT-116): > 1000 µM (inactive)
GI50 (SNB-19): > 1000 µM (inactive)
GI50 (ACHN): > 1000 µM (inactive)
GI50 (RXF 393): > 1000 µM (inactive)
GI50 (MCF7): > 1000 µM (inactive)
GI50 (NCI-H226): > 1000 µM (inactive)
GI50 (Malme-3M): > 1000 µM (inactive)
GI50 (SK-MEL-28): > 1000 µM (inactive)
GI50 (IGROV-1): > 1000 µM (inactive)
GI50 (A549): > 1000 µM (inactive)
GI50 (DU-145): > 1000 µM (inactive)
GI50 (SW-620): > 1000 µM (inactive)
GI50 (PC-3): > 1000 µM (inactive)
GI50 (OVCAR-5): > 1000 µM (inactive)
GI50 (U-251): > 1000 µM (inactive)
GI50 (A498): > 1000 µM (inactive)
GI50 (UACC-62): > 1000 µM (inactive)
